# Like-named read-outs stand apart in the source and are kept apart here.
# Biological target: T1, papain (Carica papaya, UniProt P00784)
# T1 sequence (P00784 134-345): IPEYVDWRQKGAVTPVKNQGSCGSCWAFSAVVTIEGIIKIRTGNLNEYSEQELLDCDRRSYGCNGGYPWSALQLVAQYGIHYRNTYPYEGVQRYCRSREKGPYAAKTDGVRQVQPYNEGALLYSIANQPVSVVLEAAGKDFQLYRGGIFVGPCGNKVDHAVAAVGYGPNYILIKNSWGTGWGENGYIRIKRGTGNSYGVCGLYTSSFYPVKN
# Experiment: chromogenic protease assay (BAPNA, […] nm) after […] min preincubation of DTT-reduced papain with compound
# Format: biochemical
smiles,measurement,setting,value
"C=CCS[S+]([O-])CC=C (stereo not drawn) [compound 1, allicin]",IC50,,1200 ± 200 nM
"[O-][S+](Cc1ccccc1)SCc1ccccc1 (stereo not drawn) [compound 2, petivericin]",IC50,read-out: IC50,1100 ± 100 nM
"CCCCCCc1ccc(CS[S+]([O-])Cc2ccc(CCCCCC)cc2)cc1 (stereo not drawn) [compound 4, hexylated petivericin]",IC50,read-out: IC50,1000 ± 100 nM

# Reference: article PMC6054074, “The medicinal thiosulfinates from garlic and Petiveria are not radical-trapping antioxidants in liposomes and cells, but lipophilic analogs are” (Chemical Science, 2015)
